Data taken from patent publication US11319324B2, “Pyrazolo-pyrrolo-pyrimidine-dione derivatives as P2X3 inhibitors” (Bayer Aktiengesellschaft, priority 2017, dated 2022).

Tests used:
Format in all cases: cell-based
[1] = biological target: T1, human P2X2/3 receptors (Homo sapiens, UniProt P56373+Q9UBL9); assay: Intracellular calcium measurement, antagonist activity at human P2X2/3 receptors (hP2X23 1321N1), Fluo8; details: for IC50: column 4); 1321N1 cells, human P2X2/3, Fluo8, agonist ATP at EC50; read-out: 4) hP2X2/3 IC50 [nM] (1321N1); for hP2X23/hP2X3* Selectivity (1321N1): ratio of column 4) hP2X2/3 to column 3) hP2X3, 1321N1
T1 construct: expressed in transfected cells; host or cells: human astrocytoma 1321N1 (1312N1 [sic])
T1 sequence (P56373 1-397): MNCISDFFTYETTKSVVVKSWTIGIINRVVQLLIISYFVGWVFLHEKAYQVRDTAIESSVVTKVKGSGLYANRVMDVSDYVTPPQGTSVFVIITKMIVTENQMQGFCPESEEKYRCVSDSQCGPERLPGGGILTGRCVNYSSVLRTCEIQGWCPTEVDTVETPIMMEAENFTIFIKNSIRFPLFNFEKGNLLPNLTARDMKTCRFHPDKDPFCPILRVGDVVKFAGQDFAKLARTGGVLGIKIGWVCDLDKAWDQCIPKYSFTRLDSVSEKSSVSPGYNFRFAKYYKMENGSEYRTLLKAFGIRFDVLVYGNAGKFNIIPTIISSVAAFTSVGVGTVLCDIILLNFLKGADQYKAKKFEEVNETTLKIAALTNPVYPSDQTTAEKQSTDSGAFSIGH
T1 sequence (Q9UBL9 1-471): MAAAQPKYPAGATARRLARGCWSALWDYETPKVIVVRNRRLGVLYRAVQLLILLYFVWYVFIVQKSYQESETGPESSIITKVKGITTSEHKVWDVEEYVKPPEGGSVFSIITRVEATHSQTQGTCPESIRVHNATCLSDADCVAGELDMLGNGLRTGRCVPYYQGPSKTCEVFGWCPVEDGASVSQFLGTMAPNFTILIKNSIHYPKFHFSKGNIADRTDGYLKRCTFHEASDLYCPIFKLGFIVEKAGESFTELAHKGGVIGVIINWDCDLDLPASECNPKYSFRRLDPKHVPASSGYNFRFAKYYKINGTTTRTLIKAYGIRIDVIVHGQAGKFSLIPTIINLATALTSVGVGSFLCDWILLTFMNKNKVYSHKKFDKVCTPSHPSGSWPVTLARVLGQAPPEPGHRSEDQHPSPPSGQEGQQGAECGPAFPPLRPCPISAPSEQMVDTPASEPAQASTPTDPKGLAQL
How it was run: (§1)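 Antagonism was assessed by decrease of the Fluo8 calcium signal after ATP challenge, with ATP dosed at the EC50 of whichever receptor was tested. Stable 1321N1 astrocytoma lines expressed either human P2X3 or both P2X2 and P2X3, and were dye-loaded 60 min before a 10 min compound incubation.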

[2] = biological target: T2, human P2X3 receptor (Homo sapiens, UniProt P56373); assay: Intracellular calcium measurement to assess antagonist activity at human P2X3 receptors (hP2X3 CHO), photina luminescence; design: expressed in transfected cells; host or cells: Chinese hamster ovary (CHO) cells; details: column 2), CHO cells, agonist α,β-methylene-ATP at EC50
T2 sequence (P56373 1-397): T1 sequence (P56373 1-397)
How it was run: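 Antagonism read as lowered photina luminescence after agonist stimulation in recombinant hP2X3/photina CHO cells. Cells seeded one day earlier (30 °C) and reconstituted with 5 μg/ml coelenterazine in 2 mM Ca-tyrode buffer for 3 h at 37 °C before measurement.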

[3] = biological target: T2, human P2X3 receptor; assay: Intracellular calcium measurement to assess antagonist activity at human P2X3 receptors (hP2X3 FLIPR); design: expressed in transfected cells; host or cells: human astrocytoma 1321N1 (1312N1 [sic]); details: head prints (1321N1); read-out: 1) hP2X3 IC50 [nM] (1321N1)
Procedure: 1) Intracellular Calcium Measurement to Assess Antagonist Activity at Human P2X3 Receptors (hP2X3 FLIPR)
A fluorescent imaging plate reader (FLEX/FLIPR station; Molecular Devices) was used to monitor intracellular calcium levels using the calcium-chelating dye Fluo-4 (Molecular Probes). The excitation and emission wavelengths used to monitor fluorescence were 470-495 nm and 515-575 nm, respectively. The human astrocytoma […] cells expressing purinergic receptors P2X3 (human) were plated at a density of 15,000 cells/well in collagen—coated 384-well plates approximately 20 hours before beginning the assay. […] The dye supernatant was removed and replaced with 45 μl probenecid buffer (Hank's balanced salt solution, 20 mM HEPES, 0.5 mM CaCl2, 0.5 mM MgCl2, 0.1% BSA, 5 mM probenecid, 10 mM D-glucose monohydrate, pH=7.4). The test compounds were added in a volume of 5 μl and allowed to incubate for 30 min at 37° C. The final assay DMSO concentration is 1%. […] The fluorescence was measured for an interval of 90 sec at 2 sec intervals and analyzed based on the increase in peak relative fluorescence units (RFU) compared to the basal fluorescence. Peak fluorescence was used to determine the response to agonist obtained at each concentration of test compound by the following equation: Response=100*(RFU(test compound)−RFU(control))/(RFU(DMSO)−RFU(control))
The Examples were tested in triplicates per plate and mean values were plotted in Excel XLFit to determine IC50 values at the human P2X3 and human P2X2/3 receptors, percentage of maximal inhibition and the Hill coefficients.

[4] = biological target: T2, human P2X3 receptor; assay: Intracellular calcium measurement, antagonist activity at human P2X3 receptors (hP2X3 1321N1), Fluo8; design: expressed in transfected cells; host or cells: human astrocytoma 1321N1 (1312N1 [sic]); details: column 3); 1321N1 cells, human P2X3, Fluo8, agonist ATP at EC50
How it was run: as §1

| Structure (SMILES) | IC50 [1] | hP2X23/hP2X3* Selectivity (1321N1) [1] | IC50 [2] | IC50 [3] | IC50 [4] |
| --- | --- | --- | --- | --- | --- |
| CC(C)N1Cc2c(n(CC(=O)Nc3ccc(F)cn3)c3cc(C(C)(C)C)nn3c2=O)C1=O [Example 1, 2-[2-tert-butyl-5,8-dioxo-6-(propan-2-yl)-5,6,7,8-tetrahydro-4H-pyrazolo[1,5-a]pyrrolo[3,4-d]pyrimidin-4-yl]-N-(5-fluoropyridin-2-yl)acetamide] | 4900 nM | 138 | 35 nM | 22 nM | 35 nM |
| CC(C)N1Cc2c(n(CC(=O)Nc3ccccn3)c3cc(C(C)(C)C)nn3c2=O)C1=O [Example 2] | > 22000 nM | >119 | 135 nM | 219 nM | 185 nM |
| CC(C)c1cc2n(CC(=O)Nc3ccc(Cl)cn3)c3c(c(=O)n2n1)CN(C(C)C)C3=O [Example 8] | 3650 nM | 76 | 51 nM | 50 nM | 48 nM |
| Cc1ccc(NC(=O)Cn2c3c(c(=O)n4nc(C(C)C)cc24)CN(C(C)C)C3=O)nc1 [Example 9] | > 19900 nM | >76 | 220 nM | 107 nM | 263 nM |
| Cc1ccc(NC(=O)Cn2c3c(c(=O)n4nc(C(C)(C)C)cc24)CN([C@@H](C)C(C)C)C3=O)nc1 [Example 11] | > 20600 nM | >31 | 750 nM | 376 nM | 657 nM |
| CC[C@@H](C)N1Cc2c(n(CC(=O)Nc3ccc(F)cn3)c3cc(C(F)(F)F)nn3c2=O)C1=O [Example 14] | 11500 nM | 194 | 60 nM | 30 nM | 59 nM |
| CC[C@@H](C)N1Cc2c(n(CC(=O)Nc3ccc(Cl)cn3)c3cc(C(F)(F)F)nn3c2=O)C1=O [Example 15] | 4650 nM | 88 | 49 nM | 21 nM | 53 nM |
| CC[C@@H](C)N1Cc2c(n(CC(=O)Nc3ccc(C)cn3)c3cc(C(F)(F)F)nn3c2=O)C1=O [Example 16] | > 100000 nM | >6 | 320 nM | 100 nM | > 16600 nM |
| CC(C)(C)c1cc2n(CC(=O)Nc3ccc(F)cn3)c3c(c(=O)n2n1)CN(C1CCC1)C3=O [Example 17] | > 18100 nM | >345 | 72 nM | 31 nM | 53 nM |
| Cc1ccc(NC(=O)Cn2c3c(c(=O)n4nc(C(C)(C)C)cc24)CN(C2CCC2)C3=O)nc1 [Example 19] | 8050 nM | 11 | 430 nM | 379 nM | 740 nM |
| CC[C@H](C)N1Cc2c(n(CC(=O)Nc3ccc(C)cn3)c3cc(C(F)(F)F)nn3c2=O)C1=O [Example 21] | 12400 nM | 53 | 180 nM | 164 nM | 233 nM |

Other lines, results leading:

| IC50 [1] | hP2X23/hP2X3* Selectivity (1321N1) [1] | IC50 [2] | IC50 [3] | IC50 [4] | Structure (SMILES) |
| --- | --- | --- | --- | --- | --- |
| > 20900 nM | >183 | 55 nM | 57 nM | 115 nM | COCC(C)N1Cc2c(n(CC(=O)Nc3ccc(F)cn3)c3cc(C(=O)N(C)C)nn3c2=O)C1=O (racemic) [Example 140, 4-{2-[(5-fluoropyridin-2-yl)amino]-2-oxoethyl}-6-[(±)-1-methoxypropan-2-yl]-N,N-dimethyl-5,8-dioxo-5,6,7,8-tetrahydro-4H-pyrazolo[1,5-a]pyrrolo[3,4-d]pyrimidine-2-carboxamide] |
|  |  |  | 125 nM |  | COCC(C)N1Cc2c(n(CC(=O)Nc3ccc(F)cn3)c3cc(CO)nn3c2=O)C1=O (racemic) [Example 141, N-(5-fluoropyridin-2-yl)-2-{2-(hydroxymethyl)-6-[(±)-1-methoxypropan-2-yl]-5,8-dioxo-5,6,7,8-tetrahydro-4H-pyrazolo[1,5-a]pyrrolo[3,4-d]pyrimidin-4-yl}acetamide] |
| 2850 nM | 78 | 147 nM | 32 nM | 37 nM | CC(C)N1Cc2c(n(CC(=O)Nc3ccc(Cl)cn3)c3cc(C(C)(C)C)nn3c2=O)C1=O [Example 3] |
| 9600 nM | 54 | 345 nM | 147 nM | 177 nM | Cc1ccc(NC(=O)Cn2c3c(c(=O)n4nc(C(C)(C)C)cc24)CN(C(C)C)C3=O)nc1 [Example 4] |
| 8000 nM | 167 | 71 nM | 28 nM | 48 nM | CC(C)c1cc2n(CC(=O)Nc3ccc(F)cn3)c3c(c(=O)n2n1)CN(C(C)C)C3=O [Example 7] |
| > 32000 nM | >101 | 38 nM | 24 nM | 317 nM | CC(C)[C@H](C)N1Cc2c(n(CC(=O)Nc3ccc(F)cn3)c3cc(C(C)(C)C)nn3c2=O)C1=O [Example 10] |
| 8800 nM | 39 | 110 nM | 59 nM | 225 nM | CC(C)[C@H](C)N1Cc2c(n(CC(=O)Nc3ccc(Cl)cn3)c3cc(C(C)(C)C)nn3c2=O)C1=O [Example 12] |
| 5650 nM | 212 | 51 nM | 21 nM | 27 nM | CC(C)(C)c1cc2n(CC(=O)Nc3ccc(F)cn3)c3c(c(=O)n2n1)CN(CC1CC1)C3=O [Example 13] |
| 2500 nM | 20 | 106 nM | 69 nM | 124 nM | CC(C)(C)c1cc2n(CC(=O)Nc3ccc(Cl)cn3)c3c(c(=O)n2n1)CN(C1CCC1)C3=O [Example 18] |
| > 22000 nM | >41 | 375 nM | 312 nM | 537 nM | CC[C@H](C)N1Cc2c(n(CC(=O)Nc3ccc(F)cn3)c3cc(C(F)(F)F)nn3c2=O)C1=O [Example 20] |
|  |  |  | 4 nM |  | CC(C)(C)c1cc2n(CC(=O)Nc3ccc(F)cn3)c3c(c(=O)n2n1)CN(CCOCc1ccccc1)C3=O [Example 34, 2-{6-[2-(Benzyloxy)ethyl]-2-tert-butyl-5,8-dioxo-5,6,7,8-tetrahydro-4H-pyrazolo[1,5-a]pyrrolo[3,4-d]pyrimidin-4-yl}-N-(5-fluoropyridin-2-yl)acetamide] |
|  |  |  | 35 nM |  | Cc1cc2n(CC(=O)Nc3ccc(Cl)cn3)c3c(c(=O)n2n1)CN(C(C)C)C3=O [Example 42] |
|  |  | 1100 nM | 1220 nM |  | Cc1ccc(NC(=O)Cn2c3c(c(=O)n4nc(C(C)(C)C)cc24)CN(C2COC2)C3=O)nc1 [Example 47] |
